Each structure is given as a SMILES string.

These results are taken from ChEMBL document CHEMBL6134845, “O-derivatization of natural tropolone and β-thujaplicin leading to effective inhibitors of human carbonic anhydrases IX and XII” (Eur J Med Chem, 2025).

The target of one series is Carbonic anhydrase 9 (Homo sapiens, UniProt Q16790).
Series [1] deals with Carbonic anhydrase 5A, mitochondrial (Homo sapiens, UniProt P35218). The series can be described thus: Inhibition of human CA-VA incubated for 15 mins by stopped-flow CO2 hydration assay.
The next series addresses Carbonic anhydrase 1 (Homo sapiens, UniProt P00915). The series can be described thus: Inhibition of human CA-I incubated for 15 mins by stopped-flow CO2 hydration assay.
The target in the next series is Carbonic anhydrase 7 (Homo sapiens, UniProt P43166). The series can be described thus: Inhibition of human CA-VII incubated for 15 mins by stopped-flow CO2 hydration assay.
The species entered for series [2] is Homo sapiens. The series can be described thus: Inhibition of […] human CA-II H94C mutant using p-nitrophenylacetate as substrate at 500 uM preincubated for 10 mins followed by substrate addition by absorbance based assay relative to control.
For series [3], the target named is T1, Carbonic anhydrase 2 (Homo sapiens, UniProt P00918). The series can be described thus: Inhibition of wild-type human CA-II using p-nitrophenylacetate as substrate at 500 uM preincubated for 10 mins followed by substrate addition by absorbance based assay relative to control.
Another series has as its target Carbonic anhydrase 12 (Homo sapiens, UniProt O43570). The series can be described thus: Inhibition of human CA-XII incubated for 15 mins by stopped-flow CO2 hydration assay.
In series [4] the target is T1, Carbonic anhydrase 2. The series can be described thus: Inhibition of human CA-II incubated for 15 mins by stopped-flow CO2 hydration assay.
For series [5], the species on record is Homo sapiens. The series can be described thus: Inhibition of […] human CA-II H94D mutant using p-nitrophenylacetate as substrate at 500 uM preincubated for 10 mins followed by substrate addition by absorbance based assay relative to control.
The target in series [6] is T1, Carbonic anhydrase 2. The series can be described thus: Inhibition of wild-type human CA-II using p-nitrophenylacetate as substrate preincubated for 15 mins followed by substrate addition measured for 20 mins by absorbance based assay.
Series [7] is described as follows: Inhibition of […] human CA-II L198G mutant using p-nitrophenylacetate as substrate preincubated for 15 mins followed by substrate addition measured for 20 mins by absorbance based assay.
Series [8] can be described thus: Induction of apoptosis in human BZB-resistant NCI-H929 cells assessed as viable cells at 2.5 uM incubated for 48 hrs by Annexin V/7-AAD staining based FACS analysis (reference value: 86.7 %). The class given is functional. Conditions: BZB-resistant […] cell, read-out: Activity.
Series [9] is described as follows: Induction of apoptosis in human BZB-resistant NCI-H929 cells assessed as viable cells at 5 uM incubated for 48 hrs by Annexin V/7-AAD staining based FACS analysis (reference value: 86.7 %). The format is functional. The following applies: BZB-resistant […] cell, read-out: Activity. In general terms: A flow cytometer gives signals particle by particle.
Series [10] can be described thus: Induction of apoptosis in human BZB-resistant NCI-H929 cells assessed as viable cells at 10 uM incubated for 48 hrs by Annexin V/7-AAD staining based FACS analysis (reference value: 86.7 %). The class given is functional. Conditions: BZB-resistant […] cell, read-out: Activity.
Series [11] in a line: Antiproliferative activity against human PBMC cells assessed as decrease in cell viability at 10 uM incubated for 48 hrs by Cell Titer Glo assay. The format is toxicity, cell-based. For orientation: In ATP-based viability assays light output follows the ATP content of the culture.

Carbonic anhydrase 7, sequence (P43166 whole entry): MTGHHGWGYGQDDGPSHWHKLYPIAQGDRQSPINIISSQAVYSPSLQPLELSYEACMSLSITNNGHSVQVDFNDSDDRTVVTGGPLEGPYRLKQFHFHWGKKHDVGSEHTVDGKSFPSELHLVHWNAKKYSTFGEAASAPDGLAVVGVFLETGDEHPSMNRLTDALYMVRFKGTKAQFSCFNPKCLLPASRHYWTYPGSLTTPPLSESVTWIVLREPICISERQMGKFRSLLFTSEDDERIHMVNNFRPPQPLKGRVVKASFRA
Carbonic anhydrase 5A, mitochondrial, sequence (P35218 whole entry): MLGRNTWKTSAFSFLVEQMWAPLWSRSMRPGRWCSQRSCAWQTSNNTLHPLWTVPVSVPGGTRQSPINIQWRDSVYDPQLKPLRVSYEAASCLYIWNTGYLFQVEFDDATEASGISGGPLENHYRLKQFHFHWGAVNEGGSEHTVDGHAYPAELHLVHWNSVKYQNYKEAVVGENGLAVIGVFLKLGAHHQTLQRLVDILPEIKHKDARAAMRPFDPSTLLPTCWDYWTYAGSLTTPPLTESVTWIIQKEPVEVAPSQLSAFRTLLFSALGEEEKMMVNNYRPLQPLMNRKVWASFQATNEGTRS
Carbonic anhydrase 1, sequence (P00915 whole entry): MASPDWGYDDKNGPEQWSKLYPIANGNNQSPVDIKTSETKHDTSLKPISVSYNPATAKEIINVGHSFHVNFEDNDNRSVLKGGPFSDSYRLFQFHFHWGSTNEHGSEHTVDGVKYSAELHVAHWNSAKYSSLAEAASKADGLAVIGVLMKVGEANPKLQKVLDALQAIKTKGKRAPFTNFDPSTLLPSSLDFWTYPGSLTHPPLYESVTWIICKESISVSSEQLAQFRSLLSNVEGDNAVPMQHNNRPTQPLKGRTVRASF
Carbonic anhydrase 12, sequence (O43570 whole entry): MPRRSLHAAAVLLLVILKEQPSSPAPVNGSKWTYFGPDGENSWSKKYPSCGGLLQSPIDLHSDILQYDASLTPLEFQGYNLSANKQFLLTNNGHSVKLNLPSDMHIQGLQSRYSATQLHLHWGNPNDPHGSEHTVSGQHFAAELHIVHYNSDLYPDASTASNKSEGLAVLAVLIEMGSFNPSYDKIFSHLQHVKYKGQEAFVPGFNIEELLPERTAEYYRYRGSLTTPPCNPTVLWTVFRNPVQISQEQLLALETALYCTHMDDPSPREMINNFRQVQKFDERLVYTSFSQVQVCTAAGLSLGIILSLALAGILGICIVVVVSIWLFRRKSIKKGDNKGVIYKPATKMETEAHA
Description for Carbonic anhydrase 9: Inhibition of human CA-IX incubated for 15 mins by stopped-flow CO2 hydration assay

For `O=C(O)COc1cccccc1=O`, the values for the inhibitory constant (Ki) (on Carbonic anhydrase 9; in series [1]) were 25.6 µM and 8.11 µM, respectively.

`O=c1cccccc1OCc1ccccc1[N+](=O)[O-]`: the Ki – broadly, a dissociation constant, usually derived from enzyme kinetics or from competition with a known ligand – at Carbonic anhydrase 1 was 8.01 µM; on Carbonic anhydrase 9, above 100 µM; in series [1] it was above 100 µM; on Carbonic anhydrase 7 it was above 100 µM.

Take `O=c1cccccc1OCc1cccc2ccccc12`: the Ki was above 100 µM at Carbonic anhydrase 1, 2.28 µM at Carbonic anhydrase 9 and 2.82 µM at Carbonic anhydrase 7.

`CC(C)c1cccc(=O)c(O)c1` [HINOKITIOL]: the inhibition (in general, the change of the read-out against control, counted positive when it falls) in the series filed under Homo sapiens [2] was 0%; at Carbonic anhydrase 2 [3], 16%; in the series filed under Homo sapiens [5] it was 47%. Moreover, the inhibitory constant (Ki) at Carbonic anhydrase 1 was 4.98 µM; on Carbonic anhydrase 12 it was above 100 µM; on Carbonic anhydrase 2 [4] it was 90.6 µM; on Carbonic anhydrase 9 it was 23.9 µM; in series [1], 7.5 µM; at Carbonic anhydrase 7 it was above 100 µM.

Consider `O=c1cccccc1OCCCCCBr`, for which the Ki was above 100 µM at Carbonic anhydrase 1, 0.54 µM at Carbonic anhydrase 9 and 1.52 µM at Carbonic anhydrase 7.

Regarding `O=c1cccccc1S`, the inhibitory constant (Ki) at Carbonic anhydrase 2 [6] turned out to be 96 µM; in series [7], 61 µM.

With `CC(C)c1cccc(=O)c(OCc2ccccc2[N+](=O)[O-])c1`, the Ki on Carbonic anhydrase 1 was above 100 µM; at Carbonic anhydrase 9, 1.41 µM; in series [1], 8.96 µM; on Carbonic anhydrase 7 it was 5.41 µM.

As to `O=c1cccccc1OCc1ccccc1C(F)(F)F`, the inhibitory constant (Ki) at Carbonic anhydrase 1 was above 100 µM; on Carbonic anhydrase 9 it was 4.3 µM; in series [1] it was 6.63 µM; on Carbonic anhydrase 7, 6.19 µM.

For `CC(C)c1cccc(OCc2ccccc2C(F)(F)F)c(=O)c1`, the Ki (at Carbonic anhydrase 9; in [1]; on Carbonic anhydrase 7) was above 100 µM in each case.

As to `O=c1cccccc1O` [TROPOLONE], the inhibition in the series listed under Homo sapiens [2] turned out to be 0%; in the series filed under Homo sapiens [5], 47%. For the same molecule, the Ki on Carbonic anhydrase 1 is above 100 µM; on Carbonic anhydrase 12 it was above 100 µM; at Carbonic anhydrase 2 [4], above 100 µM; on Carbonic anhydrase 9 it was above 100 µM; on Carbonic anhydrase 2 [6], 1350 µM; in series [7], 245 µM. For the same molecule, the Ki (in series [1]; on Carbonic anhydrase 7) was above 100 µM throughout.

For `O=C(Oc1cccccc1=O)C12CC3CC(CC(C3)C1)C2`, the figures for the Ki (on Carbonic anhydrase 9; in series [1]) were 43.5 µM and 85.6 µM, respectively.

In the case of `CC(C)c1cccc(=O)c(OCc2ccccc2C(F)(F)F)c1`, the inhibition constant (Ki) was 83.5 µM in series [1] and above 100 µM on Carbonic anhydrase 7.

Regarding `CC(C)c1cccc(OCc2ccc(Br)cc2)c(=O)c1`, the Ki at Carbonic anhydrase 1 was above 100 µM; on Carbonic anhydrase 9, 0.26 µM; in series [1], 7.95 µM; at Carbonic anhydrase 7 it was 0.96 µM.

As for `Cc1ccc(S(=O)(=O)Oc2cc(C(C)C)cccc2=O)cc1`, the figures for the inhibition constant Ki on Carbonic anhydrase 1, at Carbonic anhydrase 9 and on Carbonic anhydrase 7 were above 100 µM, 0.42 µM and 9.33 µM, respectively. Further, the viability at 2.5 µM in series [8] is 78.1%. The viability at 5 µM in series [9] came out at 74.5%. In addition, in series [10], the viability at 10 µM is 36.7%. Further, in [11], the Activity entry is “Non-toxic”.

Take `CC(C)c1cccc(OCCCCCOc2cccc(C(C)C)cc2=O)c(=O)c1`: the inhibitory constant (Ki) was above 100 µM on Carbonic anhydrase 1, 1.33 µM on Carbonic anhydrase 9, 31.6 µM in series [1] and 7.1 µM on Carbonic anhydrase 7.

For `Cc1ccc(S(=O)(=O)Oc2cccccc2=O)cc1`, the Ki was 94.2 µM at Carbonic anhydrase 1, above 100 µM at Carbonic anhydrase 9, above 100 µM in series [1] and above 100 µM at Carbonic anhydrase 7.

With `O=c1cccccc1OCc1ccc(Br)cc1`, the Ki on Carbonic anhydrase 1 is above 100 µM; on Carbonic anhydrase 9 it was 37.7 µM; in [1] it was above 100 µM.

Turning to `CC(C)c1cccc(OCc2ccccc2[N+](=O)[O-])c(=O)c1`, the values for the inhibition constant (Ki) (on Carbonic anhydrase 9; in series [1]; on Carbonic anhydrase 7) were 0.94 µM, 21.7 µM and 6.18 µM, respectively.

Take `N#Cc1ccc(COc2cccccc2=O)cc1`: the inhibition constant (Ki) on Carbonic anhydrase 1 was 8.31 µM; on Carbonic anhydrase 9, above 100 µM; in series [1], above 100 µM; at Carbonic anhydrase 7 it was above 100 µM.

As to `O=c1cccccc1OCCCCl`, the Ki was above 100 µM on Carbonic anhydrase 1, 8.94 µM at Carbonic anhydrase 9 and 5.2 µM on Carbonic anhydrase 7.

For the molecule `O=C(Oc1cccccc1=O)c1ccc([N+](=O)[O-])cc1`, the inhibition constant Ki on Carbonic anhydrase 1 is 84.4 µM; on Carbonic anhydrase 9 it was above 100 µM; at Carbonic anhydrase 7 it was above 100 µM.

As for `C#CCOc1cccccc1=O`, the Ki at Carbonic anhydrase 1 is 0.05 µM; in [1] it was above 100 µM.

For `O=c1cccccc1OCc1cccc([N+](=O)[O-])c1`, the results for the Ki at Carbonic anhydrase 1, on Carbonic anhydrase 9 and on Carbonic anhydrase 7 were above 100 µM, 34.5 µM and above 100 µM, respectively.

For `CC(C)c1cccc(OCc2cccc3ccccc23)c(=O)c1`, the Ki was above 100 µM on Carbonic anhydrase 1, 0.53 µM on Carbonic anhydrase 9, 89.4 µM in series [1] and 3.95 µM on Carbonic anhydrase 7.

For `O=c1cccccc1OCc1ccc([N+](=O)[O-])cc1`, the Ki at Carbonic anhydrase 1 is 6.22 µM; on Carbonic anhydrase 9, 13.3 µM; in series [1] it was above 100 µM; on Carbonic anhydrase 7, above 100 µM.

In the case of `CC(C)c1cccc(OC(=O)c2ccc([N+](=O)[O-])cc2)c(=O)c1`, the Ki on Carbonic anhydrase 1 is above 100 µM; at Carbonic anhydrase 9, 0.37 µM; in [1] it was above 100 µM; on Carbonic anhydrase 7, 9.6 µM.

In the case of `Cc1ccc(S(=O)(=O)Oc2cccc(C(C)C)cc2=O)cc1`, the inhibition constant (Ki) at Carbonic anhydrase 1 is above 100 µM; at Carbonic anhydrase 9, 0.4 µM; in series [1] it was 4.45 µM; on Carbonic anhydrase 7 it was 5.27 µM.
